The record followed here is paper PMC7824535, “Inhibitory Effect of Antidesma bunius Fruit Extract on Carbohydrate Digestive Enzymes Activity and Protein Glycation In Vitro” (Antioxidants, 2020).

In brackets after ≈: the same amount, converted by molar mass.

The target of this assay is T1, intestinal maltase.
T1 construct: gene Mgam; native, supernatant of rat intestinal acetone powder, not purified; maltase activity of several enzymes
The assay can be described thus: glucose release by glucose oxidase method, […] nm. Particulars: maltose substrate (86 mM stock, 30 µL), 0.1 M phosphate buffer pH 6.9, 37 °C, 30 min; crude rat intestinal extract. The format is biochemical.

For the compound `C[C@H]1O[C@H](O[C@H]2[C@H](O)[C@@H](O)[C@@H](O[C@H]3[C@H](O)[C@@H](O)C(O)O[C@@H]3CO)O[C@@H]2CO)[C@H](O)[C@@H](O)[C@@H]1N[C@H]1C=C(CO)[C@@H](O)[C@H](O)[C@H]1O` (stereo partly shown) [Acarbose], the “IC50 Values / Maltase” value was found to be 0.89 ± 0.07 mg/L (≈ 1.38 µM).
